The nature of data set [1]: Stability studies comparing phosphoric acid with citric acid and antioxidants/stabilizers (films stored at 50 C). As to conditions: compared with film made with only phosphoric acid, 50 C. for two weeks.
The conditions of data set [2]: administered orally; cited from earlier work.

With `[Cl][Cu][Cl]` [copper chloride, Copper (II) chloride], the “degradation products / impurity profile of psilocybin film with stabilizer or acid” value (shortened to “degradation products / impurity profile”) in data set [1] is “no effect”; in data set [1] (listed as copper), “promoting the degradation”.
Turning to `Cc1cc(C(C)(C)C)c(O)c(C(C)(C)C)c1` [BHT], the “degradation products / impurity profile” value in data set [1] was “promoting the degradation”.
For vitamin E, the “degradation products / impurity profile” value in data set [1] is reported as “promoting the degradation”.
Take `CN(C)CCc1c[nH]c2cccc(OP(=O)(O)O)c12` [psilocybin]: in data set [2], the “drug absorbed into the bloodstream” value is recorded as “about 50%” and the “time of maximum plasma concentration” value was “approximately 80 minutes”.
